Values of other authors, collected in patent US20140079751A1, “METHOD OF USING COMPOSITE OF SILVER NANOPARTICLES AND NANOSILICATE PLATELETS TO INHIBIT GROWTH OF SILVER-RESISTANT BACTERIA” (priority 2010, published 2014).

System: silver-resistant Escherichia coli (J53pMG101)
Conditions: background statement, Escherichia coli strain J53 pMG101

Substance: silver ions
- silver ion concentration the strain can survive: more than 1 mM
